Measured values taken from paper PMC11678797, “A Repurposed Drug Selection Pipeline to Identify CNS-Penetrant Drug Candidates for Glioblastoma” (Pharmaceuticals, 2024).
Where two headings read alike, the source gives them in different places.

Test: Pharmacokinetics of omacetaxine in orthotopic glioblastoma PDX and naïve NOD/SCID mice (LC-MS/MS of plasma, brain, liver)
Format: in vivo, mouse
Method: An amount of 10 μL medium samples was vortex-mixed with 30 μL of acetonitrile: formic acid (100:1 v/v) containing 100 nM RO-3306 Internal Standard). After centrifugation, the supernatant was 5-fold diluted in water. OMA concentrations were measured using an LC-MS/MS system that consisted of an UltiMate 3000 LC System (Dionex, Sunnyvale, CA, USA) and an API 4000 mass spectrometer (Sciex, Framingham, MA, USA). Samples were analyzed using a ZORBAX Extend-C18 column (Agilent, Santa Clara, CA, USA), preceded by a Security-guard C18 pre-column (Phenomenex, Utrecht, The Netherlands). Elution was performed using a mixture of mobile phase A (0.1% formic acid in water (v/v)) and mobile phase B (methanol) in a 5 min gradient from 20% to 95% B, followed by 95% B that was maintained for 3 min and then re-equilibrated at 20% B. Multiple reaction monitoring parameters were 546.6/298.1 (OMA) and 352.1/186.0 (RO-3306).
Non-obese diabetic severe combined immunodeficient (NOD/SCID) female mice 6–8 weeks of age were used for this study. All experiments were ethically approved by the local Animal Experiments Committee. Patient-derived glioblastoma cell lines were cultured under serum-free conditions prior to injection into the mice. Mice were stereotactically injected with GS607, GS832 (both 2.5 × 10^5 in 5 μL) or GBM8 (1 × 10^5 in 3 μL) in the right striatum 1.0 mm anteroposterior (AP), 2.0 mm medio lateral (ML) and −2.5 mm dorsal ventral (DV) of bregma suture under aseptic conditions. Mice were monitored daily for signs of persistent abnormal behavior and/or breathing, weight loss >20% and development of neurological symptoms such as convulsions, seizures and/or hemiparesis. Mice were euthanized and the mouse brains harvested for histological and LC/MS/MS analysis.
A single dose of 1.5 mg/kg of OMA was administered s.c. to glioblastoma-bearing NOD/SCID and naïve non-tumor-bearing mice. Mice received OMA prior to the timepoint drug delivery experiment, ensuring the presence of significant tumor masses. For GS607, this was at 78 days; for GS832 at 90 days; and for GBM8 at 46 days post-tumor implantation, based on previous survival experiments. Blood samples were collected at 15 min, 30 min, 60 min, 120 min and 240 min via the tail vein and/or submandibular vein and placed in EDTA tubes. Mice were euthanized at 60 min, 120 min or 240 min with cervical dislocation. Brains and livers were surgically collected and snap-frozen in liquid nitrogen (N2). To preserve the drug stability in plasma mouse blood, samples were centrifuged immediately upon collection. Plasma was separated by centrifugation at 3500 rpm at 4 °C for 15 min. Both plasma and tissue samples were stored at −80 °C until LC-MS/MS analysis.

[1] = GBM8 PDX, 60 min, single s.c. dose 1.5 mg/kg, n = 6, 1.5 mg/kg
[2] = GS607-PDX, 60 min, single s.c. dose 1.5 mg/kg, n = 2 blood samples, 1.5 mg/kg
[3] = GS607-PDX, 60 min, single s.c. dose 1.5 mg/kg, n = 4, 1.5 mg/kg
[4] = GS832-PDX, 60 min, single s.c. dose 1.5 mg/kg, n = 5, 1.5 mg/kg
[5] = GS832-PDX, single s.c. dose 1.5 mg/kg

- [Brain] ± SD, right hemisphere (tumor bearing) [1]: 45.0 ± 20.0 ng/g
- [Liver] ± SD [1]: 998.2 ± 254.3 ng/g
- [Plasma] ± SD [1]: 391.3 ± 57.5 ng/mL
- [Brain]/[Plasma] Ratio ± SD (GBM8 PDX, 60 min, single s.c. dose 1.5 mg/kg, 1.5 mg/kg): 0.11 ± 0.04
- [Brain]/[Plasma] Ratio ± SD [2]: 0.23 ± 0.01
- [Plasma] ± SD [2]: 88.4 ± 9.0 ng/mL
- [Brain] ± SD, right hemisphere (tumor bearing) [3]: 20.7 ± 5.05 ng/g
- [Liver] ± SD [3]: 1653.4 ± 163.6 ng/g
- [Plasma] ± SD (GS832-PDX NOD/SCID mice, single s.c. dose 1.5 mg/kg, 15 min (Table 1), 1.5 mg/kg): 396.3 ± 58.7 ng/mL
- [Plasma] ± SD (GS832-PDX NOD/SCID mice, single s.c. dose 1.5 mg/kg, 60 min (Table 1, n = 9), 1.5 mg/kg): 165.7 ± 28.7 ng/mL
- [Plasma] ± SD (GS832-PDX NOD/SCID mice, single s.c. dose 1.5 mg/kg, 240 min (Table 1), 1.5 mg/kg): 23.9 ± 2.86 ng/mL
- [Brain] ± SD, right hemisphere (tumor bearing) [4]: 18.0 ± 6.3 ng/g
- [Liver] ± SD [4]: 680.0 ± 155.9 ng/g
- [Brain]/[Plasma] Ratio ± SD (GS832-PDX, 60 min, single s.c. dose 1.5 mg/kg, 1.5 mg/kg): 0.10 ± 0.05
- [Liver] ± SD (GS832-PDX, 240 min, single s.c. dose 1.5 mg/kg, n = 5, 1.5 mg/kg): 190.1 ± 47.8 ng/g
- [Brain]/[Plasma] Ratio ± SD (GS832-PDX, 240 min, single s.c. dose 1.5 mg/kg, 1.5 mg/kg): 0.50 ± 0.33
- brain total mean concentration lower than in the liver [5]: approximately 40 fold
- concentrations in tumor-bearing hemisphere versus contralateral hemisphere [5]: not significantly different
- reduction in plasma concentration from peak (15 min) by 4 h (GS832 tumor-bearing mice, single s.c. dose 1.5 mg/kg): 17 fold
- OMA concentrations in tumor-bearing versus contralateral hemispheres (any of the tested models (GS832, GS607, GBM8)): did not detect a significant difference
- concentration at 60 min (female, NOD/SCID, mouse, brain tumor, sc, 1.5 mg/kg, GBM8 PDX, 60 min, single s.c. dose 1.5 mg/kg, read-out: measured brain tumor concentration expressed): 82.5 nM
- concentration at 60 min (female, NOD/SCID, mouse, brain tumor, sc, 1.5 mg/kg, GS607-PDX, 60 min, single s.c. dose 1.5 mg/kg, read-out: measured brain tumor concentration expressed): 37.9 nM
- concentration at 60 min (female, NOD/SCID, mouse, brain tumor, sc, 1.5 mg/kg, GS832-PDX, 60 min, single s.c. dose 1.5 mg/kg, read-out: measured brain tumor concentration expressed): 33 nM
- concentration at 60 min (female, NOD/SCID, mouse, brain, right hemisphere (non-tumor-bearing), sc, 1.5 mg/kg, naïve non-tumor-bearing mice, 60 min, single s.c. dose 1.5 mg/kg, n = 2, read-out: [Brain] ± SD, right hemisphere (non-tumor-bearing)): 16.4 ± 2.9 ng/g
- concentration at 60 min (female, NOD/SCID, mouse, brain, right hemisphere (tumor bearing), sc, 1.5 mg/kg, GBM8 PDX, 60 min, single s.c. dose 1.5 mg/kg, n = 6, read-out: [Brain] ± SD, right hemisphere (tumor bearing)): 45 ± 20 ng/g
- concentration at 60 min (female, NOD/SCID, mouse, brain, right hemisphere (tumor bearing), sc, 1.5 mg/kg, GS607-PDX, 60 min, single s.c. dose 1.5 mg/kg, n = 4, read-out: [Brain] ± SD, right hemisphere (tumor bearing)): 21 ± 5 ng/g
- concentration at 60 min (female, NOD/SCID, mouse, brain, right hemisphere (tumor bearing), sc, 1.5 mg/kg, GS832-PDX, 60 min, single s.c. dose 1.5 mg/kg, n = 5, read-out: [Brain] ± SD, right hemisphere (tumor bearing)): 18 ± 6 ng/g
- concentration at 120 min (female, NOD/SCID, mouse, brain, right hemisphere (tumor bearing), sc, 1.5 mg/kg, GS832-PDX, 120 min, single s.c. dose 1.5 mg/kg, n = 5, read-out: [Brain] ± SD, right hemisphere (tumor bearing)): 20.8 ± 16.9 ng/g
SMILES: COC(=O)C[C@](O)(CCCC(C)(C)O)C(=O)O[C@@H]1C(OC)=C[C@]23CCCN2CCc2cc4c(cc2[C@H]13)OCO4 [OMA, Omacetaxine mepesuccinate]
